Measured values reported in patent publication US10676431B2, “Phenylpyrrolidinone formyl peptide 2 receptor agonists” (BRISTOL-MYERS SQUIBB COMPANY, priority 2018, dated 2020).

Legend:
[1] = target: human FPR2 (Homo sapiens (Human), UniProt P25090); experiment: FPR2 cyclic adenosine monophosphate (cAMP) assay; format: cell-based; settings: CHO cells overexpressing human FPR2; forskolin 5 μM, IBMX 200 μM; inhibition of cAMP production, HTRF; read-out: hFPR2 cAMP2 EC50
Experimental: (§1) FPR2 and FPR1 Cyclic Adenosine Monophosphate (cAMP) Assays. A mixture of forskolin (5 μM final for FPR2 or 10 μM final for FPR1) and IBMX (200 μM final) were added to 384-well Proxiplates (Perkin-Elmer) pre-dotted with test compounds in DMSO (1% final) at final concentrations in the range of 0.020 nM to 100 μM. Chinese Hamster Ovary cells (CHO) overexpressing human FPR1 or human FPR2 receptors were cultured in F-12 (Ham's) medium supplemented with 10% qualified FBS, 250 μg/ml zeocin and 300 μg/ml hygromycin (Life Technologies). Reactions were initiated by adding 2,000 human FPR2 cells per well or 4,000 human FPR1 cells per well in Dulbecco's PBS (with calcium and magnesium) (Life Technologies) supplemented with 0.1% BSA (Perkin-Elmer). The reaction mixtures were incubated for 30 min at room temperature. The level of intracellular cAMP was determined using the HTRF HiRange cAMP assay reagent kit (Cisbio) according to manufacturer's instruction. Solutions of cryptate conjugated anti-cAMP and d2 fluorophore-labelled cAMP were made in a supplied lysis buffer separately. Upon completion of the reaction, the cells were lysed with equal volume of the d2-cAMP solution and anti-cAMP solution. After a 1-h room temperature incubation, time-resolved fluorescence intensity was measured using the Envision (Perkin-Elmer) at 400 nm excitation and dual emission at 590 nm and 665 nm. A calibration curve was constructed with an external cAMP standard at concentrations ranging from 1 μM to 0.1 pM by plotting the fluorescent intensity ratio from 665 nm emission to the intensity from the 590 nm emission against cAMP concentrations. The potency and activity of a compound to inhibit cAMP production was then determined by fitting to a 4-parametric logistic equation from a plot of cAMP level versus compound concentrations.

[2] = target: human FPR1 (Homo sapiens (Human), UniProt P21462); experiment: FPR1 cyclic adenosine monophosphate (cAMP) assay; format: cell-based; settings: CHO cells overexpressing human FPR1; forskolin 10 μM, IBMX 200 μM; inhibition of cAMP production, HTRF; read-out: hFPR1 cAMP EC50
human FPR1, sequence (P21462 whole entry): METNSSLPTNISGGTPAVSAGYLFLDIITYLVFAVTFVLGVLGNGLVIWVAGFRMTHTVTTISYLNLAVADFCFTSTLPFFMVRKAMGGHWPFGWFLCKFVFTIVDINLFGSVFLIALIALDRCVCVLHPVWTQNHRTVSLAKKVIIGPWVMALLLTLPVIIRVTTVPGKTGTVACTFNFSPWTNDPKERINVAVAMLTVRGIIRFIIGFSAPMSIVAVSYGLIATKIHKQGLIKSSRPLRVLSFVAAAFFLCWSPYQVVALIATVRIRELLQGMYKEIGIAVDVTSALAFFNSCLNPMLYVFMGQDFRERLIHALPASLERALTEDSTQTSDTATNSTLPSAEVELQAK
Experimental: as §1, with “After a 1-h room temperature incubation, time-resolved fluorescence intensity was measured using the Envision (Perkin-Elmer) at 400 nm excitation and dual emission at 590 nm and 665 nm. A calibration curve was constructed with an external cAMP standard at concentrations ranging from 1 μM to 0.1 pM by plotting the fluorescent intensity ratio from 665 nm emission to the intensity from the 590 nm emission against cAMP concentrations.” left out

human FPR2, sequence (P25090 whole entry): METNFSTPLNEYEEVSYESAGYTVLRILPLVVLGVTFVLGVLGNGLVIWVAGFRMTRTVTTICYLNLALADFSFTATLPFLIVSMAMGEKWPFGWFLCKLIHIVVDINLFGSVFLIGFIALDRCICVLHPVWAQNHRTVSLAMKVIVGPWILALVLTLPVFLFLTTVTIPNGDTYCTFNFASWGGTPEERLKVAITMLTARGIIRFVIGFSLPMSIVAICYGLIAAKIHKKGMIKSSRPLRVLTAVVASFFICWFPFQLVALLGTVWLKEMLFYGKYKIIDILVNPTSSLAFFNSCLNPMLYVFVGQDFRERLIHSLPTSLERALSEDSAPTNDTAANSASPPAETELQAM

Row | SMILES | EC50 [1] | EC50 [2]
1 | COc1c(N2CC[C@@H](NC(=O)Nc3ccc(Cl)cc3F)C2=O)ccc(-c2ccccc2NS(C)(=O)=O)c1F [Example 36] | 0.0047 µM | 0.069 µM
2 | CCP(=O)(CC)c1ccccc1-c1ccc(N2CC[C@@H](NC(=O)Nc3ccc(C(F)(F)F)cc3F)C2=O)c(F)c1F [Example 68] | 0.00053 µM | 0.15 µM
3 | CP(C)(=O)c1ccccc1-c1ccc(N2CC[C@@H](NC(=O)Nc3ccc(C(F)(F)F)cc3F)C2=O)c(F)c1Cl [Example 77] | 0.0012 µM | 0.079 µM
4 | O=C(Nc1ccc(Cl)cc1F)N[C@@H]1CCN(c2ccc(-c3cnn(C(F)F)c3)c(F)c2F)C1=O [Example 79] | 0.039 µM | > 10 µM
5 | COc1c(-c2ccccc2NS(C)(=O)=O)ccc(N2CC[C@@H](NC(=O)Nc3ccc(Cl)cc3F)C2=O)c1F [Example 34] | 0.0041 µM | 0.026 µM
6 | CS(=O)(=O)c1ccccc1-c1ccc(N2CC[C@@H](NC(=O)Nc3ccc(Cl)cc3F)C2=O)c(F)c1F [Example 7] | 0.0021 µM | 0.14 µM
7 | CP(C)(=O)c1ccccc1-c1cc(F)c(N2CC[C@@H](NC(=O)Nc3ccc(Cl)cc3F)C2=O)c(F)c1 [Example 53] | 0.0078 µM | 2.7 µM
8 | CC1(C)CN(c2ccc(-c3cccnc3P(C)(C)=O)c(F)c2F)C(=O)[C@@H]1NC(=O)Nc1ccc(C(F)(F)F)cc1F [Example 110] | 0.0011 µM | 0.64 µM
9 | CS(=O)(=O)c1ccccc1-c1ccc(N2CC[C@@H](NC(=O)Nc3ccc(Cl)cn3)C2=O)c(F)c1F [Example 24] | 0.022 µM | 1.4 µM
10 | CC(C)c1cc(-c2ccccc2CO)ccc1N1CC[C@@H](NC(=O)Nc2ccc(Cl)cc2F)C1=O [Example 38] | 0.0035 µM | 0.042 µM
11 | CS(=O)(=O)Nc1ccccc1-c1ccc(N2CC[C@@H](NC(=O)Nc3ccc(Cl)cc3F)C2=O)c(C2CC2)c1 [Example 26] | 0.00055 µM | 0.047 µM
12 | CC(N)c1cccc(-c2ccc(N3CC[C@@H](NC(=O)Nc4ccc(Cl)cc4F)C3=O)c(F)c2F)c1 (stereo partly drawn) [Example 50] | 0.014 µM | 0.64 µM
13 | CS(=O)(=O)Nc1ncccc1-c1ccc(N2CC[C@@H](NC(=O)Nc3ccc(Cl)cc3F)C2=O)c(C2CC2)c1 [Example 48] | 0.0037 µM | 0.11 µM
14 | CP(C)(=O)c1ccccc1-c1ccc(N2CC[C@@H](NC(=O)Nc3ccc(Cl)cc3F)C2=O)c(F)c1C(F)(F)F [Example 83] | 0.00041 µM | 0.00099 µM
15 | CP(C)(=O)c1ccccc1-c1ccc(N2CC[C@@H](NC(=O)Nc3ccc(Cl)cc3F)C2=O)c(Cl)c1Cl [Example 78] | 0.0012 µM | 0.045 µM
16 | CP(C)(=O)c1ccccc1-c1ccc(N2C(=O)[C@H](NC(=O)Nc3ccc(C(F)(F)F)cc3F)C[C@H]2CN2CCOCC2)c(F)c1F [Example 131] | 0.0012 µM | 0.061 µM
17 | CP(C)(=O)c1ccccc1-c1ccc(N2CC[C@@H](NC(=O)Nc3csc(Cl)c3)C2=O)c(F)c1F [Example 133] | 0.15 µM | > 5 µM
18 | CC(C)c1cc(-c2ccccc2P(C)(C)=O)ccc1N1CC[C@@H](NC(=O)Nc2ccc(C(F)(F)F)cc2F)C1=O [Example 60] | 0.0037 µM | 0.12 µM
19 | CP(C)(=O)c1c(F)cccc1-c1ccc(N2CC[C@@H](NC(=O)Nc3ccc(Cl)cc3F)C2=O)c(F)c1Cl [Example 85] | 0.00062 µM | 0.0051 µM
20 | CP(C)(=O)c1ccccc1-c1ccc(N2CC[C@@H](NC(=O)Nc3ccc(OC(F)(F)F)cc3)C2=O)c(F)c1F [Example 51] | 0.0082 µM | 1.3 µM
21 | O=C(Nc1ccc(Cl)cc1F)N[C@@H]1CCN(c2ccc(-c3ccccc3N3CCOC3=O)c(F)c2F)C1=O [Example 119] | 0.014 µM | 0.19 µM

Row | SMILES | EC50 [1] | EC50 [2]
22 | CP(C)(=O)c1ncncc1-c1ccc(N2CC[C@@H](NC(=O)Nc3ccc(Cl)cc3F)C2=O)c(F)c1F [Example 84] | 0.006 µM | 0.28 µM
23 | CS(=O)(=O)Nc1ccccc1-c1ccc(N2CC[C@@H](NC(=O)Nc3ncc(Cl)cc3F)C2=O)c(F)c1F [Example 13] | 0.0065 µM | 2.5 µM
24 | N#Cc1ccccc1-c1ccc(N2CC[C@@H](NC(=O)Nc3ccc(Cl)cc3F)C2=O)c(F)c1F [Example 9] | 0.0021 µM | 0.031 µM
25 | CP(C)(=O)c1ccccc1-c1ccc(N2CC[C@@H](NC(=O)Nc3ccc(Cl)cc3F)C2=O)c(F)c1Cl [Example 81] | 0.00052 µM | 0.027 µM
26 | CS(=O)(=O)c1ccccc1-c1cc(F)c(N2CC[C@@H](NC(=O)Nc3ccc(Cl)cc3F)C2=O)c(F)c1 [Example 52] | 0.01 µM | 1.1 µM
27 | Cn1ccc(-c2ccc(N3CC[C@@H](NC(=O)Nc4ccc(Cl)cc4F)C3=O)c(F)c2F)n1 [Example 28] | 0.0098 µM | 0.55 µM
28 | CP(C)(=O)c1ncccc1-c1ccc(N2C(=O)[C@H](NC(=O)Nc3ccc(C(F)(F)F)cc3F)C[C@H]2CO)c(F)c1F [Example 123] | 0.0015 µM | 0.24 µM
29 | CP(C)(=O)c1ccccc1-c1ccc(N2CC[C@@H](NC(=O)Nc3cccc(Cl)c3)C2=O)c(F)c1F [Example 134] | 0.0025 µM | 1500 µM
30 | CP(C)(=O)c1ccccc1-c1ccc(N2CC[C@@H](NC(=O)Nc3ccc(Cl)cc3F)C2=O)c(C(F)(F)F)c1F [Example 91, (R)-1-(4-Chloro-2-fluorophenyl)-3-(1-(2′-(dimethylphosphoryl)-2-fluoro-3-(trifluoromethyl)-[1,1′-biphenyl]-4-yl)-2-oxopyrrolidin-3-yl)urea] | 0.0057 µM | 0.2 µM
31 | CP(C)(=O)c1ccccc1-c1ccc(N2CC[C@@H](NC(=O)Nc3cnc(Cl)cn3)C2=O)c(F)c1F [Example 63] | 0.00567 µM | 4.4 µM
32 | CP(C)(=O)c1ccccc1-c1ccc(N2CC[C@@H](NC(=O)Nc3ccc(Cl)cc3F)C2=O)c(Cl)c1F [Example 99] | 0.00079 µM | 0.24 µM
33 | CP(C)(=O)c1ncncc1-c1ccc(N2CC[C@@H](NC(=O)Nc3ccc(C(F)(F)F)cc3F)C2=O)c(F)c1F [Example 93] | 0.012 µM | 0.78 µM
34 | CP(C)(=O)c1ccccc1-c1ccc(N2CC[C@@H](NC(=O)Nc3ccc(Cl)cc3F)C2=O)c(F)c1OC(F)(F)F [Example 87] | 0.0016 µM | 0.0012 µM
35 | CS(=O)(=O)Nc1ccccc1-c1ccc(N2CC[C@@H](NC(=O)Nc3ccc(C(F)(F)F)cc3)C2=O)cc1 [Example 14] | 0.0072 µM | 0.6 µM
36 | CS(=O)(=O)Nc1ccccc1-c1ccc(N2CC[C@@H](NC(=O)Nc3ccc(C(F)(F)F)cc3)C2=O)c(F)c1F [Example 6] | 0.001 µM | 0.19 µM
37 | CP(C)(=O)c1ccccc1-c1ccc(N2CC[C@@H](NC(=O)Nc3ccc(Cl)s3)C2=O)c(F)c1F [Example 135] | 0.0029 µM | 720 µM
38 | CC(C)c1cc(-c2cccnc2NS(C)(=O)=O)ccc1N1CC[C@@H](NC(=O)Nc2ccc(Cl)cc2F)C1=O [Example 47] | 0.0028 µM | 0.064 µM
39 | CC1(C)CN(c2ccc(-c3ccccc3P(C)(C)=O)c(F)c2F)C(=O)[C@@H]1NC(=O)Nc1ccc(C(F)(F)F)cc1F [Example 102] | 0.0017 µM | 0.57 µM
40 | CS(=N)(=O)c1ccccc1-c1ccc(N2CC[C@@H](NC(=O)Nc3ccc(Cl)cc3F)C2=O)c(F)c1F (stereo partly drawn) [Example 59] | 0.0017 µM | 0.14 µM
41 | O=C(Nc1ccc(Cl)cc1F)N[C@@H]1C[C@@H](CO)N(c2ccc(-c3ccccc3F)c(F)c2F)C1=O [Example 82] | 0.0025 µM | 0.78 µM
42 | CS(=O)(=O)c1ccccc1-c1ccc(N2C(=O)[C@H](NC(=O)Nc3ccc(Cl)cc3F)C[C@H]2CO)c(F)c1F [Example 42] | 0.001 µM | 0.22 µM
